Source: patent publication US20100055169A1, “CATIONIC LIPIDS AND USES THEREOF” (ABBOTT LABORATORIES, priority 2008, published 2010)
Each block holds one compound with its values, some of them ahead of it.

Legend:
Type in all cases: physicochemical
Conditions in all cases: lipid:siRNA 25:1
[1] = Particle sizing by dynamic light scattering (DynaPro plate reader), in vitro formulations
Method: (§1) The siRNA concentrations were measured using Quanti-iT RiboGreen RNA reagent (Molecular Probes, (R11490)). Vesicle sizes were characterized by dynamic light scattering with a DynaPro™ Plate Reader (Wyatt Technology) in 96-well half-area UV plate (Coring) after diluting the formulation sample (20 μL) in phosphate buffered saline (80 μL) at a pH of about 7-8. A 1% agarose gel-based assay was used for analyzing nuclease degradation and protection. Encapsulation efficiency (EE) was calculated using data obtained from a RiboGreen assay.
Particle sizes and size distributions (PDI) were characterized by using dynamic light scattering (DLS). A DLS plate reader (Dynapro™, Wyatt Technology) was used for the DLS measurement. This DLS plate reader uses an 830 nm laser and the scattering angle is 158°. It also can control temperature from 4° C. to 70° C. A 96-well format was employed for the samples.
Samples for DLS analysis were prepared by mixing 20 μL of each sample stock solution with 80 μL PBS directly in the 96-well plate (#3697, Corning). Sample mixing was accomplished using a microplate shaker (Orbis, Mikura Ltd.). Plates were read at 20° C. with an acquisition time of 50 seconds for each sample, and data was analyzed with Wyatt Technology's Dynamics V6 software. To rule out potential multiple scattering artifacts, a second plate at 4-fold reduced sample concentrations was independently prepared by mixing 5 μL stock solutions with 95 μL PBS. Under our experimental conditions the results at the two concentrations were very similar, and the final reported result for each sample represents the average of values obtained from the two plates.

[2] = RiboGreen assay of siRNA encapsulation efficiency, in vitro formulations of Lipid-Based Particles
Method: The mixing solution of cationic lipids, cholesterol, non-cationic lipids and PEG-lipids was prepared in ethanol (total concentration at 10 mg/mL). siSTABLE (purchased from ThermoFisher) (sense-5′ GGGGAAAGCUGGCAAGAUUUU-3′SEQ ID NO. 1, antisense-5′-AAUCUUGCCAGCUUUCCCCUU-3′ SEQ ID NO: 2) % stock solution was prepared in 10 mg/mL of solution by dissolving 10 mg siRNA in 1 mL of RNAse-free UltraPure Water. The calculated amount of siRNA solution was added to 1 mL of citrate buffer (pH 4.0, 20 mM), to provide an siRNA concentration of 0.2 mg/mL, and warmed to 60 C. The calculated amount of lipid solution was warmed to 60 C, transferred to a 0.5 mL syringe with 28½ gauge needle, and injected into the citrate buffer with stirring at 60 C. After 3 minutes, 3 mL of PBS solution at room temperature (pH 7.4) was added into the lipid mixture with stirring. The Lipid-Based Particle solution was cooled to room temperature.
as §1
(§2) RNA concentration and encapsulation efficiency were determined using a Quant-iT® Ribogreen RNA reagent and kit available from Invitrogen. The siRNA was released from the Lipid-Based Particle using one of the following reagents: ethanol, Triton X-100, or phenol/chloroform. The siRNA concentration is quantified using fluorescent reading at 480 nm/520 nm.

[3] = RiboGreen assay of siRNA encapsulation efficiency, in vivo formulations of Lipid-Based Particles
Method: as §2
The lipid solution was prepared (10 mg/ml) by dissolving the lipid in 200 proof ethanol. The lipid mixture solution is prepared according to the above composition in Table 5.
An siRNA (TetR_ODC—12, G.G.G.G.A.A.A.G.C.U.G.G.C.A.A.G.A.U.U.U.U SEQ ID NO: 1) (ThermoFisher) solution is prepared in a concentration of 10 mg/ml by dissolving 10 mg siRNA in 1 ml of DNAse/RNAse-free distilled water.
(§3) A round bottom flask was submerged into a 65° C. water bath. Citrate buffer (37.5 ml) of pH 4.0 was pipetted into the flask. The solution was stirred by a magnetic stirring bar at a speed of 900 rpm. Both the pH 4.0 citrate buffer and the lipid solution were pre-warmed in the 65° C. water bath for about 3 minutes. A siRNA solution (0.5 ml) was pipetted into the pH 4.0 citrate buffer. The 12.5 ml lipid mixture solution was injected through a 27 gauge needle into the citrate buffer in about 30 seconds. The needle tip was inserted into the solution during the injection. The resulting solution was stirred for 5 minutes at a speed of 900 rpm. The flask was pulled up from the water bath and a 50 ml pH 7.4 PBS buffer was added into the flask. The final solution was further mixed at a speed of 900 rpm for 5 minutes. For the diafiltration process, a dialysis filter (Millipore, 100K, Cat#PXB100C50) was used to remove ethanol in the above solution. When the volume was reduced to 20 ml during the initial diafiltration, 20 ml of pH 7.4 PBS was added to the sample solution. The diafiltration was continued until the volume was reduced to 20 ml. The diafiltration process was repeated 4 times. The volume of the sample solution was reduced to about 12 ml and pH 7.4 PBS was added to make the final volume of 15 ml. The 15 ml solution was filtered sequentially through the 0.45 and 0.22 μm sterile PVDF membrane filters (Millipore) and immediately transferred into a sterile vial.

[4] = Particle sizing assay (Zetasizer Nano ZS), in vivo formulations
Method: as §3
For measurements of particle sizes and size distributions (PDI), lipid-based particles were prepared as described above. The particle solution (60 μL) was pipetted into a disposable cuvette (UVette, Eppendorf, cat#952010051) and measured in the “General Purpose” mode. Attenuator and position were optimized by the device. Measurements were performed using a Zetasizer Nano ZS (Malvern Instruments) equipped with a 4 mW He—Ne laser at a wavelength of 633 nm at 25° C. Scattered light was detected at a 173° backward scattering angle. The viscosity and refractive index of water at 25° C. was used for data analysis with the Dispersion Technology Software 5.00 (Malvern Instruments).

[5] = in vitro formulation a: Cationic lipid/Example 73/DSPC/Chol 45/10/15/30 wt %
[6] = in vitro formulation b: Cationic lipid/PEG-cholesterol/DSPC/Chol 45/10/15/30 wt %
[7] = in vivo formulation I: Cationic lipid/PEG-DPPE/DSPC/Chol 45/10/15/30 wt %
[8] = in vivo formulation J: Cationic lipid/PEG-DSPE/DSPC/Chol 45/10/15/30 wt %
[9] = in vivo formulation L: Cationic lipid/PEG-DPG/DSPC/Chol 45/10/15/30 wt %
[10] = in vivo formulation A: Cationic lipid/Example 73/DSPC/Chol 45/10/15/30 wt %

SMILES: CCCCC/C=C\C/C=C\CCCCCCCCOCC(CCN1CCN(C)CC1)OCCCCCCCC/C=C\C/C=C\CCCCC (stereo not drawn) [Example 6, 1-{3,4-bis[(9Z,12Z)-octadeca-9,12-dienyloxy]butyl}-4-methylpiperazine]
Size [1, 5]: 178 nm | Size distribution (PDI) [1, 5]: 0.16

SMILES: CCCCC/C=C\C/C=C\CCCCCCCCOCC(CCN(C)C)OCCCCCCCC/C=C\C/C=C\CCCCC (stereo not drawn) [Example 4, N,N-dimethyl-3,4-bis[(9Z,12Z)-octadeca-9,12-dienyloxy]butan-1-amine]
% Encapsulation Efficiency [2, 6]: 97.5% | Size [1, 6]: 136.6 nm

SMILES: CCCCC/C=C\C/C=C\CCCCCCCCOCC(CCN(C)Cc1ccccc1)OCCCCCCCC/C=C\C/C=C\CCCCC (stereo not drawn) [Example 11, N-benzyl-N-{3,4-bis[(9Z,12Z)-octadeca-9,12-dienyloxy]butyl}-N-methylamine]
Size [1, 5]: 154 nm | Size distribution (PDI) [1, 5]: 0.2

SMILES: CCCCC/C=C\C/C=C\CCCCCCCCOCC(CCOCCN1CCN(C)CC1)OCCCCCCCC/C=C\C/C=C\CCCCC (stereo not drawn) [Example 28, 1-(2-{3,4-bis[(9Z,12Z)-octadeca-9,12-dienyloxy]butoxy}ethyl)-4-methylpiperazine]
% Encapsulation Efficiency [2, 6]: 94.3% | % Encapsulation Efficiency [3, 7]: 99% | % Encapsulation Efficiency [3, 8]: 99% | % Encapsulation Efficiency [3, 9]: 99% | Size [4, 7]: 107.1 nm | Size distribution (PDI) [4, 7]: (0.025) | Size [4, 8]: 80.2 nm | Size distribution (PDI) [4, 8]: (0.026) | Size [4, 9]: 87 nm | Size distribution (PDI) [4, 9]: (0.012)

SMILES: CCCCC/C=C\C/C=C\CCCCCCCCOCC(CCN1CCN(c2ccccc2OC)CC1)OCCCCCCCC/C=C\C/C=C\CCCCC (stereo not drawn) [Example 8, 1-{3,4-bis[(9Z,12Z)-octadeca-9,12-dienyloxy]butyl}-4-(2-methoxyphenyl)piperazine]
Size [1, 5]: 130 nm

SMILES: CCCCC/C=C\C/C=C\CCCCCCCCOCC(CCN(C)CCc1ccccn1)OCCCCCCCC/C=C\C/C=C\CCCCC (stereo not drawn) [Example 10, N-{3,4-bis[(9Z,12Z)-octadeca-9,12-dienyloxy]butyl}-N-methyl-N-(2-pyridin-2-ylethyl)amine]
Size [1, 5]: 161 nm | Size distribution (PDI) [1, 5]: 0.168

SMILES: CCCCC/C=C\C/C=C\CCCCCCCCOCC(CCN1CCOCC1)OCCCCCCCC/C=C\C/C=C\CCCCC (stereo not drawn) [Example 2, 4-{3,4-bis[(9Z,12Z)-octadeca-9,12-dienyloxy]butyl}morpholine]
% Encapsulation Efficiency [3, 10]: 83.6% | Size [4, 10]: 89 nm | Size distribution (PDI) [4, 10]: (0.1)

SMILES: CCCCC/C=C\C/C=C\CCCCCCCCOCC(CCN1CCN(c2ccccc2)CC1)OCCCCCCCC/C=C\C/C=C\CCCCC (stereo not drawn) [Example 5, 1-{3,4-bis[(9Z,12Z)-octadeca-9,12-dienyloxy]butyl}-4-phenylpiperazine]
Size [1, 5]: 157 nm | Size distribution (PDI) [1, 5]: 0.070

SMILES: CCCCC/C=C\C/C=C\CCCCCCCCOCC(CCOCCN1CCCC1)OCCCCCCCC/C=C\C/C=C\CCCCC (stereo not drawn) [Example 31, 1-(2-{3,4-bis[(9Z,12Z)-octadeca-9,12-dienyloxy]butoxy}ethyl)pyrrolidine]
% Encapsulation Efficiency [2, 6]: 96.2% | % Encapsulation Efficiency [3, 10]: 93.3% | Size [4, 10]: 136 nm | Size distribution (PDI) [4, 10]: (0.0923)

Other lines, results leading:

% Encapsulation Efficiency [2, 5]: 97.2% | Size [1, 5]: 128 nm
SMILES: CCCCC/C=C\C/C=C\CCCCCCCCOC[C@H](CCN(CC)CC)OCCCCCCCC/C=C\C/C=C\CCCCC [Example 23, N-{(3S)-3,4-bis[(9Z,12Z)-octadeca-9,12-dienyloxy]butyl}-N,N-diethylamine]

% Encapsulation Efficiency [2, 5]: 86% | Size [1, 5]: 130 nm
SMILES: CCCCC/C=C\C/C=C\CCCCCCCCOC[C@@H](CCN(CC)CC)OCCCCCCCC/C=C\C/C=C\CCCCC [Example 22, N-{(3R)-3,4-bis[(9Z,12Z)-octadeca-9,12-dienyloxy]butyl}-N,N-diethylamine]

% Encapsulation Efficiency [2, 5]: 96.9% | Size [1, 5]: 128 nm | Size [4, 10]: 103 nm | Size distribution (PDI) [4, 10]: (0.06)
SMILES: CCCCC/C=C\C/C=C\CCCCCCCCOC[C@H](CCN1CCCC1)OCCCCCCCC/C=C\C/C=C\CCCCC [Example 21, 1-{(3S)-3,4-bis[(9Z,12Z)-octadeca-9,12-dienyloxy]butyl}pyrrolidine]

% Encapsulation Efficiency [2, 5]: 94.2% | Size [1, 5]: 152 nm
SMILES: CCCCC/C=C\C/C=C\CCCCCCCCOCC(CCN1CCC(OC)CC1)OCCCCCCCC/C=C\C/C=C\CCCCC (stereo not drawn) [Example 19, 1-{3,4-bis[(9Z,12Z)-octadeca-9,12-dienyloxy]butyl}-4-methoxypiperidine]

% Encapsulation Efficiency [2, 5]: 97.2% | Size [1, 5]: 146 nm | Size [4, 10]: 100 nm | Size distribution (PDI) [4, 10]: (0.09)
SMILES: CCCCC/C=C\C/C=C\CCCCCCCCOC[C@@H](CCN1CCCC1)OCCCCCCCC/C=C\C/C=C\CCCCC [Example 20, 1-{(3R)-3,4-bis[(9Z,12Z)-octadeca-9,12-dienyloxy]butyl}pyrrolidine]

Size [1, 5]: 70.9 nm
SMILES: CCCCC/C=C\C/C=C\CCCCCCCCOCC(CCN1CCC(N(C)C)CC1)OCCCCCCCC/C=C\C/C=C\CCCCC (stereo not drawn) [Example 16, 1-{3,4-bis[(9Z,12Z)-octadeca-9,12-dienyloxy]butyl}-N,N-dimethylpiperidin-4-amine]

% Encapsulation Efficiency [2, 5]: 94.1% | Size [1, 5]: 104 nm
SMILES: CCCCC/C=C\C/C=C\CCCCCCCCOCC(CCN(CCOC)CCOC)OCCCCCCCC/C=C\C/C=C\CCCCC (stereo not drawn) [Example 18, N,N-bis(2-methoxyethyl)-3,4-bis [(9Z,12Z)-octadeca-9,12-dienyloxy]butan-1-amine]
